The values below come from patent publication US3963707A, “Novel N-nitroso compounds, compositions containing such compounds, processes for their preparation and methods of treatment therewith, and novel intermediates” (Aktiebolaget Leo, priority 1973, dated 1976).

Data set [1] has as its system Hepatoma AH 130. In words: in vivo. The settings on record: additional compounds, result in words. Details: species or system SPF Wistar rats. In a few lines:
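Therapeutic index (LD50/ED50) was derived from tumour weight against controls at day-8 sacrifice, with ED50 the dose giving 50% tumour reduction. Rats (SPF Wistar) bore 5 × 10^6 hepatoma cells implanted intraperitoneally. A single i.p. injection followed on the day after implantation.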

The subject of data set [2] is Ehrlich ascites tumour, ELD hyperdiploid (46 chromosomes). In words: Ehrlich ascites tumour test (LD50, ED50, therapeutic index). The settings on record: additional compounds, result in words. It is filed as in vivo, SPF NMRI mice. In a few lines:
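SPF NMRI mice implanted i.p. with 2 × 10^6 Ehrlich ascites (ELD hyperdiploid) cells and given a single i.p. dose the next day; killed on day 8. ED50 = dose halving tumour weight versus controls, LD50 = dose lethal to 50%; T.I. = LD50/ED50.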

Data set [3] can be described thus: Progestational activity in the Clanberg test. The settings on record: standard scale of McPhail. It counts as in vivo.
For data set [4], the system named is ventral prostate. The conditions noted are these: as reported in the literature; cited from earlier work.
Data set [5] deals with lymphoid leukemia (L 1210). The conditions noted are these: result in words; cited from earlier work.
In data set [6] the test system is Adenocarcinoma 755. The conditions noted are these: result in words; cited from earlier work.
In data set [7] the test system is Sarcoma 180. The settings on record: result in words; cited from earlier work.
The conditions of data set [8]: acute intraperitoneal toxicity in mice; cited from earlier work.
Data set [9] relates to Walker 256. The conditions noted are these: result in words; cited from earlier work.

Each structure is given as a SMILES string.

For orientation: LD50 means the dose at which mortality reaches 50%.

For `C#C[C@]1(OC(C)=O)CC[C@H]2[C@@H]3CCC4=C[C@@H](OC(=O)N(C(=O)N(CCCl)N=O)C5CCCCC5)CC[C@@H]4[C@H]3CC[C@@]21C` [ethynodiol-17β-acetate-3β-/N^2-cyclohexyl-N^4-(2-chloroethyl)-N^4-nitroso allophanate/], the anti-tumor activity result in [1] and in data set [2] was “exhibit anti-tumor activity” each time. In addition, the “progestational activity compared with ethynodiol-3,17-diacetate” value in data set [3] is on record as “about half that of ethynodiol-3,17 -diacetate”.

In the case of `C[C@]12CC[C@H](O)CC1=CC[C@@H]1[C@@H]2CC[C@]2(C)C(=O)CC[C@@H]12` [dehydroepiandrosterone, androst-5-en-3β-ol-17-one], in data set [4], the “androgenic effect compared with testosterone” value is reported as “weaker androgenic effect”.

Consider `CCOC(=O)N(CCCl)N=O` [C2 H5 --], for which the “activity against lymphoid leukemia (L 1210)” value in [5] is “inactive”. For the same molecule, the “activity against Adenocarcinoma 755” value in data set [6] was “inactive”. The “activity against Sarcoma 180” value in data set [7] was “inactive”. Besides, the LD50 in [8] was 2 mg/kg.

On to `C#C[C@]1(OC(C)=O)CC[C@H]2[C@@H]3CCC4=C[C@@H](OC(=O)N(CCCl)N=O)CC[C@@H]4[C@H]3CC[C@@]21C` [ethynodiol-17β-acetate-3β-N-(2-chloroethyl)-N-nitroso carbamate], for which the anti-tumor activity entry in [1] and in data set [2] was “exhibit anti-tumor activity” each time. Moreover, the “progestational activity compared with ethynodiol-3,17-diacetate” value in data set [3] is listed as “about half that of ethynodiol-3,17 -diacetate”.

For the molecule `CC(C)COC(=O)N(CCCl)N=O` [(CH3)2 CHCH2 --], the “activity against lymphoid leukemia (L 1210)” value in data set [5] was “inactive”. The LD50 in data set [8] is 7 mg/kg. Moreover, in data set [9], the “activity against Walker 256” value is “inactive”.
